Results published in ChEMBL document CHEMBL4342498, “Design and Discovery of an Orally Efficacious Spiroindolinone-Based Tankyrase Inhibitor for the Treatment of Colon Cancer” (J Med Chem, 2020).
pIC50: −log10 of the molar value. In brackets after ≈: the same amount, converted by molar mass.

What was measured:
[1] = Stability in mouse liver microsomes assessed as parent compound remaining at 1 uM measured after 60 mins in presence of NADPH by LC-MS/MS analysis; format: ADME, Microsome; details: read-out: Stability
Tankyrase 1/2 [2] = target: T1, Tankyrase 1/2 (Homo sapiens, UniProt Q9H2K2+O95271); details: hek293
T1 sequence (Q9H2K2 whole entry): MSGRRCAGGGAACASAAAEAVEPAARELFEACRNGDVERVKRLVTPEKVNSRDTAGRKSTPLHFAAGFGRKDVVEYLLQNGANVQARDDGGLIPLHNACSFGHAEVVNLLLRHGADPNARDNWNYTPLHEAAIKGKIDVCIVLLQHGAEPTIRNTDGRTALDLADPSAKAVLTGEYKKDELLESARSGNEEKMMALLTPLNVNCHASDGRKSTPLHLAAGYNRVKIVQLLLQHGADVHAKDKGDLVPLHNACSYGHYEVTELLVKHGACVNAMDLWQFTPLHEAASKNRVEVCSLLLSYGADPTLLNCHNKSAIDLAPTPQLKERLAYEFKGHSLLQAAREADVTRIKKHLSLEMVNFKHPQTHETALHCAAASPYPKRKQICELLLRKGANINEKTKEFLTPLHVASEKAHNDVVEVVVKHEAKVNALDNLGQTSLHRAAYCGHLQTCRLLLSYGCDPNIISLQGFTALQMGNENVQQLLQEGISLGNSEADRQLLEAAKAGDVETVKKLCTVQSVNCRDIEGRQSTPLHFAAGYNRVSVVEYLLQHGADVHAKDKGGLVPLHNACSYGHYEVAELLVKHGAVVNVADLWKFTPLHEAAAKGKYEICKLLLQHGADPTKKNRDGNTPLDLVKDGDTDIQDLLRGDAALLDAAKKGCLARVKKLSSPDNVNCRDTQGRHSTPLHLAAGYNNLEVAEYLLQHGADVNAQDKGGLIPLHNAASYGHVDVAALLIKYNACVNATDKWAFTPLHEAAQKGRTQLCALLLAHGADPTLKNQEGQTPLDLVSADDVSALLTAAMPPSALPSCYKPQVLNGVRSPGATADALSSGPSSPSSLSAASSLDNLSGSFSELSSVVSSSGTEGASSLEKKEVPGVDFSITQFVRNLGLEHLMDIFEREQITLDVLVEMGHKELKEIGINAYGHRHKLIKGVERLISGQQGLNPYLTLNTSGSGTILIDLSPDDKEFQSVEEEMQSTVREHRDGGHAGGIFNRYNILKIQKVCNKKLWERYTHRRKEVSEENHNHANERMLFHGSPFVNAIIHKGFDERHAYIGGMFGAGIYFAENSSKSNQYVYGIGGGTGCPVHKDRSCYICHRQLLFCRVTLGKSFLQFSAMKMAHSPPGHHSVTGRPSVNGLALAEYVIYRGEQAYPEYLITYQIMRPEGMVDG
T1 sequence (O95271 whole entry): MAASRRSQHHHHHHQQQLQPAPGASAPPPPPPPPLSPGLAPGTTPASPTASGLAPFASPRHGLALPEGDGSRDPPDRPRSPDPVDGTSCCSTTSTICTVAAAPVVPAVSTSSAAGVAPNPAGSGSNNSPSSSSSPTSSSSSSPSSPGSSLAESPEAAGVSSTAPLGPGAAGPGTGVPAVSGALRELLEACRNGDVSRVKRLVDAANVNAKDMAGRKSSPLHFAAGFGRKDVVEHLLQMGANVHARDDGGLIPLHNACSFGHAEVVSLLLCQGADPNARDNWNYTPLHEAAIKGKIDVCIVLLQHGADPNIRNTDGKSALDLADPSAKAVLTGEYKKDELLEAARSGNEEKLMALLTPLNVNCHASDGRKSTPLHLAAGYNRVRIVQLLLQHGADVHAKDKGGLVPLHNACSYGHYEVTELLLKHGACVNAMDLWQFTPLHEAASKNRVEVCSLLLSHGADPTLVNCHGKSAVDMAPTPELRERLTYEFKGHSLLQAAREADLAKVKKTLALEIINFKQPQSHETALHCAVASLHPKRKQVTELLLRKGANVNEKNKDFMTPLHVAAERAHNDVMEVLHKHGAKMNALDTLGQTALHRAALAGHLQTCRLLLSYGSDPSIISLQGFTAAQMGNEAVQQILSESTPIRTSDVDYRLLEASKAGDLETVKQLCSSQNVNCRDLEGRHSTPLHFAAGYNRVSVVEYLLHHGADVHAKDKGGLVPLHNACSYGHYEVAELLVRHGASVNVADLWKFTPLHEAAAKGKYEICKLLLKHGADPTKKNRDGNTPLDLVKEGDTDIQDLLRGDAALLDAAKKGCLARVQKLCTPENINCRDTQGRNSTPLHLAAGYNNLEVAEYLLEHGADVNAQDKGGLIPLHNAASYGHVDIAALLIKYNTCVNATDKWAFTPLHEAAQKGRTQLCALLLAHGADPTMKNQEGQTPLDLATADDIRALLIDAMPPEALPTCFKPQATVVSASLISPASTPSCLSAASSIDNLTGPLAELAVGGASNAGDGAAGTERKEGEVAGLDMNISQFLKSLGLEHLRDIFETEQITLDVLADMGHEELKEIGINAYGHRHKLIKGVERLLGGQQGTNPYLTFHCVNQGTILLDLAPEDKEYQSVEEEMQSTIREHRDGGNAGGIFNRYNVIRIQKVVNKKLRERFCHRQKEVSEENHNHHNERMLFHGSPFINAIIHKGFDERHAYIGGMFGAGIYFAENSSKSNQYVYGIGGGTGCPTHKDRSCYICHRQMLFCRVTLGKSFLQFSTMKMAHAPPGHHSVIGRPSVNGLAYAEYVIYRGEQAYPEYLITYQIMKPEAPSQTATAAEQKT
Description: Inhibition of TNKS/TNKS2 (unknown origin) expressed in HEK293 cells assessed as reduction in Wnt-signaling measured after 24 hrs by TCF-luciferase reporter gene assay

[3] = Efflux ratio of permeability across basolateral to apical side over apical to basolateral side in MDCK2 cells; format: ADME, cell-based, Canis lupus familiaris, MDCK-II; details: dog, mdck
[4] = target: T2, Poly [ADP-ribose] polymerase tankyrase-1 (Homo sapiens, UniProt O95271)
T2 sequence (O95271 whole entry): T1 sequence (O95271 whole entry)
Description: Inhibition of recombinant human N-terminal TEV cleavage site-fused/FLAG-poly his-tagged TNKS SAM-PARP domain (1024 to 1327 residues) expressed in Escherichia coli assessed as reduction in auto-PARylation preincubated for 10 mins followed by biotinylated-NAD+ addition and measured after 45 mins by ELISA

physchem = details: phosphate buffered saline, pH 7.4
[5] = Stability in human liver microsomes assessed as parent compound remaining at 1 uM measured after 60 mins in presence of NADPH by LC-MS/MS analysis; format: ADME, Microsome; details: read-out: Stability
[6] = Net efflux ratio of permeability across basolateral to apical side over apical to basolateral side in MDCK2-MDR1 cells to MDCK2 cells; format: ADME, cell-based, Canis lupus familiaris; details: dog, mdck
COLO 320DM = assay: Antiproliferative activity against human COLO320DM cells assessed as inhibition of cell growth measured after 4 days by CellTiter-Glo assay; format: functional; details: 96 h
MDR1 = assay: Efflux ratio of permeability across basolateral to apical side over apical to basolateral side in MDCK2-MDR1 cells; format: ADME, cell-based, Canis lupus familiaris; details: dog, MDCK-MDR1
[7] = target: T3, Poly [ADP-ribose] polymerase tankyrase-2 (Homo sapiens, UniProt Q9H2K2); assay: Inhibition of recombinant human N-terminal TEV cleavage site-fused/FLAG-poly his-tagged TNKS2 ARC5-SAM-PARP domain (613 to 1166 residues) expressed in Escherichia coli assessed as reduction in auto-PARylation preincubated for 10 mins followed by biotinylated-NAD+ addition and measured after 45 mins by ELISA
T3 sequence (Q9H2K2 whole entry): T1 sequence (Q9H2K2 whole entry)

Tankyrase 1/2 [8] = target: T1, Tankyrase 1/2
Description: Inhibition of TNKS/TNKS2 (unknown origin) expressed in human DLD1 cells assessed as reduction in Wnt-signaling measured after 24 hrs by TCF-luciferase reporter gene assay

| Structure (SMILES) | remaining at 1 h, 1 µM [1] | IC50 (Tankyrase 1/2 [2]) | efflux ratio [3] | pIC50 [4] | solubility at 1 h, 200 µM (physchem) | remaining at 1 h, 1 µM [5] | Ratio [6] | GI50 (COLO 320DM) | efflux ratio (MDR1) | pIC50 [7] | IC50 (Tankyrase 1/2 [8]) |
| --- | --- | --- | --- | --- | --- | --- | --- | --- | --- | --- | --- |
| CN1CCCc2c1nc(N1CCC3(CC1)C(=O)N(C)c1cc(N4CCOCC4)cc(F)c13)[nH]c2=O | 46.5% | 0.0001 µM | 1.9 | 7.83 | 72.2 µg/mL (≈ 150 µM) | 6.3% | 4.1 | 0.1 µM | 7.8 | 7.98 | 0.002 µM |
| CN1CCC(Oc2cc(F)c3c(c2)N(C)C(=O)C32CCN(c3nc4c(c(=O)[nH]3)CCCN4C)CC2)CC1 | 60.3% | 0.0001 µM | 4.6 | 8.21 | 102 µg/mL (≈ 201 µM) | 22.4% | 2.5 | 0.66 µM | 11.7 | 7.67 | 0.0027 µM |
| CN1CCCc2c1nc(N1CCC3(CC1)C(=O)N(C)c1cc(N4CCCCC4)cc(F)c13)[nH]c2=O | 10.5% | 0.0007 µM | 1 | 7.67 | 5 µg/mL (≈ 10.4 µM) | 1.5% | 2.3 | 0.3 µM | 2.3 | 7.31 | 0.0064 µM |
| COCCN1C(=O)C2(CCN(c3nc4c(c(=O)[nH]3)CCCN4C)CC2)c2c(F)cc(F)cc21 | 0.1% | 0.0003 µM | 1.3 | 7.99 | 6.3 µg/mL (≈ 13.7 µM) | 1.8% | 3.7 | 0.05 µM | 4.8 | 7.93 | 0.003 µM |
| CN(C)c1cc(F)c2c(c1)N(C)C(=O)C21CCN(c2nc3c(c(=O)[nH]2)CCCN3C)CC1 | 1.8% | 0.0046 µM | 1.1 | 8.20 | 7.4 µg/mL (≈ 16.8 µM) | 1.8% | 2.5 | 1.17 µM | 2.7 | 7.89 | 0.0207 µM |
| CN1CCCc2c1nc(N1CCC3(CC1)C(=O)N(C)c1cc(N4CCNCC4)cc(F)c13)[nH]c2=O | 63.7% | 0.0032 µM | 6.8 | 7.89 | 97.3 µg/mL (≈ 202 µM) | 28.6% | 1.3 | 1.12 µM | 9.1 | 7.63 | 0.0291 µM |
| CN1CCCc2c1nc(N1CCC3(CC1)C(=O)N(CC(=O)O)c1cc(F)cc(F)c13)[nH]c2=O | 100% | 0.221 µM | 0.4 | 7.55 | 92.1 µg/mL (≈ 200 µM) | 100% | 1.3 | 12.6 µM | 0.5 | 7.53 | 1.185 µM |
| CN1CCCc2c1nc(N1CCC3(CC1)C(=O)N(CC1COC1)c1cc(F)cc(F)c13)[nH]c2=O | 0.3% | 0.0003 µM | 1.2 | 8.11 | 9.3 µg/mL (≈ 19.7 µM) | 0% | 7 | 0.2 µM | 8.4 | 7.91 | 0.0072 µM |
| CN1CCCc2c1nc(N1CCC3(CC1)C(=O)N(CC(O)CO)c1cc(F)cc(F)c13)[nH]c2=O (stereo not drawn) | 42.7% | 0.0007 µM | 11.2 | 8.05 | 88.2 µg/mL (≈ 185 µM) | 23.9% | 3.9 | 0.71 µM | 43.7 | 7.90 | 0.0145 µM |
| C[C@@H]1CN(c2cc(F)c3c(c2)N(C)C(=O)C32CCN(c3nc4c(c(=O)[nH]3)CCCN4C)CC2)C[C@H](C)N1 | 82.7% | 0.0001 µM | 6.2 | 7.95 | 102 µg/mL (≈ 200 µM) | 33% | 3.7 | 0.85 µM | 23.1 | 7.69 | 0.0043 µM |
| CN1CCCc2c1nc(N1CCC3(CC1)C(=O)N(CS(C)(=O)=O)c1cc(F)cc(F)c13)[nH]c2=O | 0.1% | 0.0001 µM | 3.3 | 8.37 | 3 µg/mL (≈ 6.08 µM) | 4.1% | 3.6 | 0.53 µM | 12 | 8.26 | 0.0057 µM |
| CN1CCCc2c1nc(N1CCC3(CC1)C(=O)N(C)c1cc(F)cc(F)c13)[nH]c2=O | 0% | 0.0039 µM | 1.1 | 8.10 | 16 µg/mL (≈ 38.5 µM) | 0.3% | 2.8 | 0.22 µM | 3.1 | 7.97 | 0.0144 µM |
| COc1cc(F)c2c(c1)N(C)C(=O)C21CCN(c2nc3c(c(=O)[nH]2)CCCN3C)CC1 | 0% | 0.0002 µM | 1.1 | 8.36 | 4.8 µg/mL (≈ 11.2 µM) | 1.9% | 2.5 | 0.13 µM | 2.7 | 8.21 | 0.0045 µM |
